This note sets out measurements from patent US20090099195A1 (ASTRAZENECA AB, priority 2007, published 2009).

The structures appear in SMILES notation.

Assay [1] addresses T1, hP2X3 (human Purinergic P2X receptors subtype 3), clone B (Homo sapiens, UniProt P56373).
T1 sequence (P56373 1-397): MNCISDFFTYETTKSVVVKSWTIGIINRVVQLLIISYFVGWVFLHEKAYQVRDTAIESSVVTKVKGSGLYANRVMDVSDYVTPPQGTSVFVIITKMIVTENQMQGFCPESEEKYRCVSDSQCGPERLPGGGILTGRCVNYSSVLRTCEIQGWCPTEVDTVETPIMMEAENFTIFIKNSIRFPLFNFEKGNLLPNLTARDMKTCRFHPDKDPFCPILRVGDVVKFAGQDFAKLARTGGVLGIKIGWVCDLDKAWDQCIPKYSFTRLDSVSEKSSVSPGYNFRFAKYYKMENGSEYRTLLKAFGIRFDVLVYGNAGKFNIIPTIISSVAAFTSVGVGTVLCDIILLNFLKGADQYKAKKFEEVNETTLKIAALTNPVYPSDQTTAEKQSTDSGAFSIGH
As to the kind of experiment: hP2X3 FLIPR calcium (Fluo-4) antagonist assay, clone B. The settings on record: Human P2X3 FLIPR Clone B IC50 (nM), RLE cells expressing hP2X3 clone B (NM_002559); agonist 500 nM α,β-methylene-ATP.

Assay [2] has as its target T2, hP2X3 (human Purinergic P2X receptors subtype 3), clone A (Homo sapiens, UniProt P56373).
T2 sequence (P56373 1-397): T1 sequence (P56373 1-397)
As to the kind of experiment: hP2X3 FLIPR calcium (Fluo-4) antagonist assay, clone A. The settings on record: Human P2X3 FLIPR Clone A Mean IC50 (nM), RLE cells expressing hP2X3 clone A (AB016608); agonist 500 nM α,β-methylene-ATP.

As usually defined, the IC50 is the concentration needed to halve the response being measured. For `CC(=O)N1CCN(c2nc(N[C@H](C)c3ccc(C(F)(F)F)cc3F)c3c(n2)C(=O)N(C(C)C)C3)CC1` [Example 186, (R)-2-(4-acetylpiperazin-1-yl)-4-(1-(2-fluoro-4-(trifluoromethyl)phenyl)ethylamino)-6-isopropyl-5H-pyrrolo[3,4-d]pyrimidin-7(6H)-one], the figures for the IC50 in assay [1] and in assay [2] were 100 nM and 138 nM, respectively.
With `COCc1ccc(CC2CCCN2c2nc(N3CCN(C(C)=O)CC3)nc3c2CN(C(C)C)C3=O)cc1` (stereo not shown) [Example 293, 2-(4-acetylpiperazin-1-yl)-4-{2-[4-(methoxymethyl)benzyl]pyrrolidin-1-yl}-6-(1-methylethyl)-5,6-dihydro-7H-pyrrolo[3,4-d]pyrimidin-7-one], the IC50 is 1400 nM in assay [1] and 1590 nM in assay [2].
For `CCOc1ccc([C@H](CO)Nc2nc(N3CCN(C(C)=O)CC3)nc3c2CN(C(C)C)C3=O)cc1` [Example 180, (R)-2-(4-acetylpiperazin-1-yl)-4-(1-(4-ethoxyphenyl)-2-hydroxyethylamino)-6-isopropyl-5H-pyrrolo[3,4-d]pyrimidin-7(6H)-one], in that order: 5800 nM and 7120 nM.
For `CC[C@H](C)N1Cc2c(nc(N3CCN(C(C)=O)CC3)nc2N(C)Cc2cnc3ccccc3c2)C1=O` [Example 319, 2-(4-acetylpiperazin-1-yl)-6-[(1S)-1-methylpropyl]-4-[methyl(quinolin-3-ylmethyl)amino]-5,6-dihydro-7H-pyrrolo[3,4-d]pyrimidin-7-one], in that order: 47 nM and 53.6 nM.
Consider `CC(=O)N1CCN(c2nc(N[C@H](C)c3ccc(C#N)cc3)c3c(n2)C(=O)N(C(C)C)C3)CC1` [Example 351, (R)-4-(1-(2-(4-acetylpiperazin-1-yl)-6-isopropyl-7-oxo-6,7-dihydro-5H-pyrrolo[3,4-d]pyrimidin-4-ylamino)ethyl)benzonitrile], for which the IC50 is 3300 nM in assay [1] and 1940 nM in assay [2].
The corresponding values for `CCOc1ccc([C@@H](C)Nc2nc(N3CCN(C(C)=O)CC3)nc3c2CN(C(C)C)C3=O)c(OC)c1` [Example 202, (R)-2-(4-acetylpiperazin-1-yl)-4-(1-(4-ethoxy-2-methoxyphenyl)ethylamino)-6-isopropyl-5H-pyrrolo[3,4-d]pyrimidin-7(6H)-one] are 51 nM and 47 nM.
For `CCOc1ccc([C@@H](CO)Nc2nc(N3CCN(C(C)=O)CC3)nc3c2CN(C(C)C)C3=O)cc1` [Example 189, (S)-2-(4-acetylpiperazin-1-yl)-4-(1-(4-ethoxyphenyl)-2-hydroxyethylamino)-6-isopropyl-5H-pyrrolo[3,4-d]pyrimidin-7(6H)-one], in that order: 79 nM and 76.6 nM.
For the molecule `CC[C@H](C)N1Cc2c(NCc3cnc4ccccc4c3)nc(N3CCN(C(C)=O)CC3)nc2C1=O` [Example 316, 2-(4-acetylpiperazin-1-yl)-6-[(1S)-1-methylpropyl]-4-[(quinolin-3-ylmethyl)amino]-5,6-dihydro-7H-pyrrolo[3,4-d]pyrimidin-7-one], the figures for the concentration for half-maximal inhibition (IC50) in assay [1] and in assay [2] were 28 nM and 35.5 nM, respectively.
For `CC(=O)N1CCN(c2nc3c(c(N4CCCC4c4ccc(F)cc4)n2)CN(C(C)C)C3=O)CC1` (stereo not shown) [Example 292, 2-(4-acetylpiperazin-1-yl)-4-[2-(4-fluorophenyl)pyrrolidin-1-yl]-6-(1-methylethyl)-5,6-dihydro-7H-pyrrolo[3,4-d]pyrimidin-7-one], in that order: 3600 nM and 4950 nM.
Take `CCN(c1nc(N2CCN(C(C)=O)CC2)nc2c1CN(C(C)C)C2=O)C(C)c1ccc2ncccc2c1` (single isomer, unassigned) [Example 257, 2-(4-acetylpiperazin-1-yl)-4-(ethyl(1-(quinolin-6-yl)ethyl)amino)-6-isopropyl-5H-pyrrolo[3,4-d]pyrimidin-7(6H)-one]: the results for the 50% inhibitory concentration (IC50) in assay [1] and in assay [2] were 80 nM and 83.2 nM, respectively.
Regarding `CC(=O)N1CCN(c2nc(NCc3nc4ccccc4s3)c3c(n2)C(=O)N(C(C)C)C3)CC1` [Example 199, 2-(4-acetylpiperazin-1-yl)-4-(benzo[d]thiazol-2-ylmethylamino)-6-isopropyl-5H-pyrrolo[3,4-d]pyrimidin-7(6H)-one], the IC50 in assay [1] worked out at 2300 nM; in assay [2] it was 5050 nM.
In the case of `CC(C)N1Cc2c(nc(N3CCN(C)C(=O)C3)nc2N(C)Cc2cc3ccccc3cn2)C1=O` [Example 200, 6-isopropyl-4-((isoquinolin-3-ylmethyl)(methyl)amino)-2-(4-methyl-3-oxopiperazin-1-yl)-5H-pyrrolo[3,4-d]pyrimidin-7(6H)-one], the results for the IC50 in assay [1] and in assay [2] were 790 nM and 501 nM, respectively.
The corresponding values for `CCC(C)N1Cc2c(nc(N3CCN(C(C)=O)CC3)nc2N(CC)Cc2cc3ccccc3cn2)C1=O` (single isomer, unassigned) [Example 318, 2-(4-acetylpiperazin-1-yl)-4-[ethyl(isoquinolin-3-ylmethyl)amino]-6-(1-methylpropyl)-5,6-dihydro-7H-pyrrolo[3,4-d]pyrimidin-7-one] are 41 nM and 43 nM.
The corresponding values for `CC(=O)N1CCN(c2nc(N[C@H](C)c3cccc(C(F)(F)F)c3F)c3c(n2)C(=O)N(C(C)C)C3)CC1` [Example 187, (R)-2-(4-acetylpiperazin-1-yl)-4-(1-(2-fluoro-3-(trifluoromethyl)phenyl)ethylamino)-6-isopropyl-5H-pyrrolo[3,4-d]pyrimidin-7(6H)-one] are 96 nM and 117 nM.
The corresponding values for `COc1ccc(C2CCCN2c2nc(N3CCN(C(C)=O)CC3)nc3c2CN(C(C)C)C3=O)cc1C` (stereo not shown) [Example 295, 2-(4-acetylpiperazin-1-yl)-4-[2-(4-methoxy-3-methylphenyl)pyrrolidin-1-yl]-6-(1-methylethyl)-5,6-dihydro-7H-pyrrolo[3,4-d]pyrimidin-7-one] are 730 nM and 824 nM.
In the case of `CCOc1ccc([C@H](Nc2nc(N3CCN(C(C)=O)CC3)nc3c2CN(C(C)C)C3=O)C2CC2)cc1` [Example 185, (R)-2-(4-acetylpiperazin-1-yl)-4-(cyclopropyl(4-ethoxyphenyl)methylamino)-6-isopropyl-5H-pyrrolo[3,4-d]pyrimidin-7(6H)-one], the IC50 in assay [1] turned out to be 74 nM; in assay [2], 79.7 nM.
As for `CCOc1ccc(CC(C)(C)Nc2nc(N3CCN(C(C)=O)CC3)nc3c2CN(C(C)C)C3=O)cc1` [Example 198, 2-(4-acetylpiperazin-1-yl)-4-(1-(4-ethoxyphenyl)-2-methylpropan-2-ylamino)-6-isopropyl-5H-pyrrolo[3,4-d]pyrimidin-7(6H)-one], the IC50 in assay [1] was 640 nM; in assay [2] it was 1230 nM.
`CCN(c1nc(N2CCN(C(C)=O)CC2)nc2c1CN(C(C)C)C2=O)C(C)c1ccc2ncccc2c1` (single isomer, unassigned) [Example 258, 2-(4-acetylpiperazin-1-yl)-4-(ethyl(1-(quinolin-6-yl)ethyl)amino)-6-isopropyl-5H-pyrrolo[3,4-d]pyrimidin-7(6H)-one]: the IC50 in assay [1] was determined as 250 nM; in assay [2], 232 nM.
On to `CC(=O)N1CCN(c2nc(N[C@H](C)c3ccc(C(F)(F)F)c(F)c3)c3c(n2)C(=O)N(C(C)C)C3)CC1` [Example 182, (R)-2-(4-acetylpiperazin-1-yl)-4-(1-(3-fluoro-4-(trifluoromethyl)phenyl)ethylamino)-6-isopropyl-5H-pyrrolo[3,4-d]pyrimidin-7(6H)-one], for which the 50% inhibitory concentration (IC50) in assay [1] was 240 nM; in assay [2], 271 nM.
As for `CC(=O)N1CCN(c2nc(N[C@H](C)c3ccc(OC4CCC4)cc3)c3c(n2)C(=O)N(C(C)C)C3)CC1` [Example 191, (R)-2-(4-acetylpiperazin-1-yl)-4-(1-(4-cyclobutoxyphenyl)ethylamino)-6-isopropyl-5H-pyrrolo[3,4-d]pyrimidin-7(6H)-one], the IC50 in assay [1] was 62 nM; in assay [2], 81.3 nM.
As to `CC(=O)N1CCN(c2nc(N[C@H](C)c3cc(F)cc(C(F)(F)F)c3)c3c(n2)C(=O)N(C(C)C)C3)CC1` [Example 184, (R)-2-(4-acetylpiperazin-1-yl)-4-(1-(3-fluoro-5-(trifluoromethyl)phenyl)ethylamino)-6-isopropyl-5H-pyrrolo[3,4-d]pyrimidin-7(6H)-one], the IC50 in assay [1] was found to be 87 nM; in assay [2], 101 nM.
Turning to `CC(=O)N1CCN(c2nc(N[C@H](C)c3cccc(OC(F)F)c3)c3c(n2)C(=O)N(C(C)C)C3)CC1` [Example 181, (R)-2-(4-acetylpiperazin-1-yl)-4-(1-(3-(difluoromethoxy)phenyl)ethylamino)-6-isopropyl-5H-pyrrolo[3,4-d]pyrimidin-7(6H)-one], the concentration for half-maximal inhibition (IC50) was determined as 320 nM in assay [1] and 175 nM in assay [2].
In the case of `CC(=O)N1CCN(c2nc(N[C@H](C)c3ccc(OC(C)C)c(F)c3)c3c(n2)C(=O)N(C(C)C)C3)CC1` [Example 190, (R)-2-(4-acetylpiperazin-1-yl)-4-(1-(3-fluoro-4-isopropoxyphenyl)ethylamino)-6-isopropyl-5H-pyrrolo[3,4-d]pyrimidin-7(6H)-one], the IC50 in assay [1] was determined as 44 nM; in assay [2], 47.2 nM.
